In US10919911B2, “Tricyclic ASK1 inhibitors” (Terns, Inc., priority 2018, dated 2021) one finds IC50 data, which are given here for 27 compounds.

ASK1 kinase, sequence (Q99683 whole entry): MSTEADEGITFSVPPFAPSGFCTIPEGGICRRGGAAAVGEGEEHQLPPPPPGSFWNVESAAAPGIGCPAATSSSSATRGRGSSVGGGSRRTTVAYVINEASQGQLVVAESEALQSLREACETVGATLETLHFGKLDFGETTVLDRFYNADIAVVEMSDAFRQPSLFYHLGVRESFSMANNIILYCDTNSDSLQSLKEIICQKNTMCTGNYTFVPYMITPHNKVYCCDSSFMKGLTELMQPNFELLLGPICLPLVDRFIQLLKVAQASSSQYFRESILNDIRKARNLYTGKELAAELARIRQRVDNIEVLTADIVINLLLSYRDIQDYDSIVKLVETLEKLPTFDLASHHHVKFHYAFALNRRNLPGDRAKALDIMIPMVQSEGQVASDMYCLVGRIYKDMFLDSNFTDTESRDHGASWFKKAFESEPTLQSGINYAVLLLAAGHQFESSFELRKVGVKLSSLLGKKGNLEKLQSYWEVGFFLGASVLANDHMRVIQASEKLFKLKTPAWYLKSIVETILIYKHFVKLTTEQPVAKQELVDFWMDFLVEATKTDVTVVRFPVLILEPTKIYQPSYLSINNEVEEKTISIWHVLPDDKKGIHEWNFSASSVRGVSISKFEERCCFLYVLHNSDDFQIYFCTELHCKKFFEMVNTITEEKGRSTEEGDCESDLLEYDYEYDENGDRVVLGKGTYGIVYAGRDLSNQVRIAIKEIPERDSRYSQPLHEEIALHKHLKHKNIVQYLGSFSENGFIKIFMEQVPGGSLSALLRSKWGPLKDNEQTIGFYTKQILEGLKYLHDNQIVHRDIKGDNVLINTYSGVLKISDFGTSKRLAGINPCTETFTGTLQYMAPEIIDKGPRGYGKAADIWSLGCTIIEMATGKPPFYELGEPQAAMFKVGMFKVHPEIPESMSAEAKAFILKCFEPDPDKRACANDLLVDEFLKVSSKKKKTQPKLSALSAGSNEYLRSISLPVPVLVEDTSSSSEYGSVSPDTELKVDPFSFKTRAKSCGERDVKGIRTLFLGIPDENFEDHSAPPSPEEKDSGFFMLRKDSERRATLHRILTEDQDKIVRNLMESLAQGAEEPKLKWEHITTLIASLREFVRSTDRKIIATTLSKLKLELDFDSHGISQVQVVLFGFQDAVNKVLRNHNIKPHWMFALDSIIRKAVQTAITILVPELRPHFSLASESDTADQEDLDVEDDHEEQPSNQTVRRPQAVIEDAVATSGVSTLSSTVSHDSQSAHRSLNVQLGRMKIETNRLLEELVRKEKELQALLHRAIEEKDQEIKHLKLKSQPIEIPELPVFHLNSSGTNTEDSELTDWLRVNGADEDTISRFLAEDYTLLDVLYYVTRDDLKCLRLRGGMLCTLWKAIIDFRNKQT

For this experiment, the target named is ASK1 kinase (Homo sapiens (Human), UniProt Q99683). Kind of experiment: RBC Kinase Assay (33P-ATP radiometric, myelin basic protein substrate). The format is biochemical. Conditions: 20 ng ASK1 kinase, MBP substrate, 120 min at room temperature, 1% DMSO. The method, then:
Example B1. RBC Kinase Assay Protocol
Base Reaction buffer: 20 mM Hepes (pH 7.5), 10 mM MgCl2, 1 mM EGTA, 0.02% Brij35, 0.02 mg/ml BSA, 0.1 mM Na3VO4, 2 mM DTT, and 1% DMSO were used for the assay.
Myelin base protein (MPB) was prepared in freshly prepared Base Reaction Buffer. 20 ng of ASK1 kinase was delivered into the substrate solution and gently mixed. Compounds in DMSO were delivered into the kinase reaction mixture (final DMSO concentration 1%). Commercially available 33P-ATP was delivered into the reaction mixture to initiate the reaction. The kinase reaction was incubated for 120 min. at room temperature. Reactions were spotted onto P81 ion exchange paper (Whatman #3698-915). Filters were washed extensively in 0.75% Phosphoric acid. Radioactivity on filters was read, and IC50 values were determined.
For the compound `O=C(Nc1cccc2c1OCCn1nnnc1-2)c1cc(-n2cnc(C3CC3)c2)ccn1` [Example 50, 4-(4-cyclopropyl-1H-imidazol-1-yl)-N-(5,6-dihydrobenzo[f]tetrazolo[1,5-d][1,4]oxazepin-8-yl)picolinamide], the 50% inhibitory concentration (IC50) was found to be 3.9 nM. With `CC(C)Oc1cnc(C(=O)Nc2cccc3c2OCCn2cnnc2-3)cc1-n1cnc(C2CC2)c1` [Example 73, 4-(4-cyclopropyl-1H-imidazol-1-yl)-N-(5,6-dihydrobenzo[f][1,2,4]triazolo[4,3-d][1,4]oxazepin-8-yl)-5-isopropoxypicolinamide], the IC50 was 5.8 nM. In turn, `Cc1cc(F)c(C(=O)Nc2cccc3c2OC2(CCC2)Cn2nnnc2-3)cc1-n1cnc(C2CC2)c1` [Example 72, 5-(4-cyclopropyl-1H-imidazol-1-yl)-2-fluoro-4-methyl-N-(5H-spiro[benzo[f]tetrazolo[1,5-d][1,4]oxazepine-6,1′-cyclobutan]-8-yl)benzamide] yielded an IC50 of 11.6 nM. Take `C[C@H]1COCCN1c1cnc(C(=O)Nc2cccc3c2OCCn2nnnc2-3)cc1-n1cnc(C2CC2)c1` [Example 65, (S)-4-(4-cyclopropyl-1H-imidazol-1-yl)-N-(5,6-dihydrobenzo[f]tetrazolo[1,5-d][1,4]oxazepin-8-yl)-5-(3-methylmorpholino)picolinamide]: the IC50 came to 3.3 nM. As to `Cc1cc(F)c(C(=O)Nc2cccc3c2OCCn2nncc2-3)cc1-n1cnc(C2CC2)c1` [Example 40, 5-(4-cyclopropyl-1H-imidazol-1-yl)-N-(5,6-dihydrobenzo[f][1,2,3]triazolo[1,5-d][1,4]oxazepin-8-yl)-2-fluoro-4-methylbenzamide], half-maximal inhibition (IC50) required 0.5 nM. To `Cc1cc(F)c(C(=O)Nc2cccc3c2O[C@@H](C)Cn2nnnc2-3)cc1-n1cnc(C2CC2)c1` [Example 42, (S)-5-(4-cyclopropyl-1H-imidazol-1-yl)-2-fluoro-4-methyl-N-(6-methyl-5,6-dihydrobenzo[f]tetrazolo[1,5-d][1,4]oxazepin-8-yl)benzamide] belongs 16.8 nM; to `Cc1cc(F)c(C(=O)Nc2cccc3c2OC[C@@H](C)n2nnnc2-3)cc1-n1cnc(C2CC2)c1` [Example 5, (R)-5-(4-cyclopropyl-1H-imidazol-1-yl)-2-fluoro-4-methyl-N-(5-methyl-5,6-dihydrobenzo[f]tetrazolo[1,5-d][1,4]oxazepin-8-yl)benzamide], 5.8 nM; to `Cc1cc(F)c(C(=O)Nc2cccc3c2OC[C@H](CO)n2cnnc2-3)cc1-n1cnc(C2CC2)c1` [Example 16, (S)-5-(4-cyclopropyl-1H-imidazol-1-yl)-2-fluoro-N-(5-(hydroxymethyl)-5,6-dihydrobenzo[f][1,2,4]triazolo[4,3-d][1,4]oxazepin-8-yl)-4-methylbenzamide], 5.2 nM. To `O=C(Nc1cccc2c1OCCn1nnnc1-2)c1cc(-n2cnc(C3CC3)c2)c(N2CC[C@H](O)C2)cn1` [Example 61, (S)-4-(4-cyclopropyl-1H-imidazol-1-yl)-N-(5,6-dihydrobenzo[f]tetrazolo[1,5-d][1,4]oxazepin-8-yl)-5-(3-hydroxypyrrolidin-1-yl)picolinamide] belongs 3.5 nM; to `C[C@H]1COc2c(NC(=O)c3cc(-n4cnc(C5CC5)c4)c(N4CC[C@@H](O)C4)cn3)cccc2-c2nnnn21` [Example 78, 4-(4-cyclopropyl-1H-imidazol-1-yl)-5-((R)-3-hydroxypyrrolidin-1-yl)-N—((S)-5-methyl-5,6-dihydrobenzo[f]tetrazolo[1,5-d][1,4]oxazepin-8-yl)picolinamide], 4.7 nM. To `C[C@H]1COc2c(NC(=O)c3cc(-n4cnc(C5CC5)c4)c(N4CCOCC4)cn3)cccc2-c2nnnn21` [Example 22, (S)-4-(4-cyclopropyl-1H-imidazol-1-yl)-N-(5-methyl-5,6-dihydrobenzo[f]tetrazolo[1,5-d][1,4]oxazepin-8-yl)-5-morpholinopicolinamide] belongs 0.6 nM.

For the compound `C[C@H]1COc2c(NC(=O)c3cc(-n4cnc(C5CC5)c4)ccn3)cccc2-c2nncn21` [Example 80, (S)-4-(4-cyclopropyl-1H-imidazol-1-yl)-N-(5-methyl-5,6-dihydrobenzo[f][1,2,4]triazolo[4,3-d][1,4]oxazepin-8-yl)picolinamide], 5.7 nM corresponded to half-maximal inhibition (IC50).

Take `Cc1cc(F)c(C(=O)Nc2cccc3c2O[C@H](C)Cn2cnnc2-3)cc1-n1cnc(C2CC2)c1` [Example 34, (R)-5-(4-cyclopropyl-1H-imidazol-1-yl)-2-fluoro-4-methyl-N-(6-methyl-5,6-dihydrobenzo[f][1,2,4]triazolo[4,3-d][1,4]oxazepin-8-yl)benzamide]: the half-inhibitory concentration (IC50) was determined as 4.1 nM. `Cc1cc(F)c(C(=O)Nc2cccc3c2OC[C@H](CO)n2nnnc2-3)cc1-n1cnc(C2CC2)c1` [Example 23, (S)-5-(4-cyclopropyl-1H-imidazol-1-yl)-2-fluoro-N-(5-(hydroxymethyl)-5,6-dihydrobenzo[f]tetrazolo[1,5-d][1,4]oxazepin-8-yl)-4-methylbenzamide] displayed a half-inhibitory concentration (IC50) of 0.9 nM. To `C[C@@H]1CN(c2cnc(C(=O)Nc3cccc4c3OC[C@H](C)n3nnnc3-4)cc2-n2cnc(C3CC3)c2)CCO1` [Example 76, 4-(4-cyclopropyl-1H-imidazol-1-yl)-N—((S)-5-methyl-5,6-dihydrobenzo[f]tetrazolo[1,5-d][1,4]oxazepin-8-yl)-5-((R)-2-methylmorpholino)picolinamide] belongs 3.2 nM. To `Cc1cc(F)c(C(=O)Nc2cccc3c2OCC2(CC2)n2cnnc2-3)cc1-n1cnc(C2CC2)c1` [Example 10, 5-(4-cyclopropyl-1H-imidazol-1-yl)-2-fluoro-4-methyl-N-(6H-spiro[benzo[f][1,2,4]triazolo[4,3-d][1,4]oxazepine-5,1′-cyclopropan]-8-yl)benzamide] belongs 0.5 nM.

`CC1(C)COc2c(NC(=O)c3cc(-n4cnc(C5CC5)c4)c(N4CCOCC4)cn3)cccc2-c2nnnn21` [Example 37, 4-(4-cyclopropyl-1H-imidazol-1-yl)-N-(5,5-dimethyl-5,6-dihydrobenzo[f]tetrazolo[1,5-d][1,4]oxazepin-8-yl)-5-morpholinopicolinamide] registered an IC50 of 0.5 nM. Regarding `CC(C)Oc1cnc(C(=O)Nc2cccc3c2OC[C@@H](C)n2nnnc2-3)cc1-n1cnc(C2CC2)c1` [Example 69, (R)-4-(4-cyclopropyl-1H-imidazol-1-yl)-5-isopropoxy-N-(5-methyl-5,6-dihydrobenzo[f]tetrazolo[1,5-d][1,4]oxazepin-8-yl)picolinamide], the midpoint of inhibition, the IC50, lay at 4.1 nM. In the case of `Cc1cc(F)c(C(=O)Nc2cccc3c2OCCn2nnnc2-3)cc1-n1cnc(C2CC2)c1` [Example 79, 5-(4-cyclopropyl-1H-imidazol-1-yl)-N-(5,6-dihydrobenzo[f]tetrazolo[1,5-d][1,4]oxazepin-8-yl)-2-fluoro-4-methylbenzamide], the half-maximal inhibitory concentration (IC50) was determined as 6.6 nM.

The compound `O=C(Nc1cccc2c1OCCn1nnnc1-2)c1cc(-n2cnc(C3CC3)c2)c(N2CCOCC2)cn1` [Example 21, 4-(4-cyclopropyl-1H-imidazol-1-yl)-N-(5,6-dihydrobenzo[f]tetrazolo[1,5-d][1,4]oxazepin-8-yl)-5-morpholinopicolinamide] returned a 50% inhibitory concentration (IC50) of 6 nM. On to `Cc1cc(F)c(C(=O)Nc2cccc3c2OC[C@H](C)n2cncc2-3)cc1-n1cnc(C2CC2)c1` [Example 46, (S)-5-(4-cyclopropyl-1H-imidazol-1-yl)-2-fluoro-4-methyl-N-(5-methyl-5,6-dihydrobenzo[f]imidazo[1,5-d][1,4]oxazepin-8-yl)benzamide], for which it took 15.1 nM to reach half-maximal inhibition (IC50).

`Cc1cc(F)c(C(=O)Nc2cccc3c2OC[C@H](C)n2cnnc2-3)cc1-n1cnc(C2CC2)c1` [Example 2, (S)-5-(4-cyclopropyl-1H-imidazol-1-yl)-2-fluoro-4-methyl-N-(5-methyl-5,6-dihydrobenzo[f][1,2,4]triazolo[4,3-d][1,4]oxazepin-8-yl)benzamide] had an IC50 of 9.1 nM. The result for `Cc1cc(F)c(C(=O)Nc2cccc3c2OCCn2cnc(C)c2-3)cc1-n1cnc(C2CC2)c1` [Example 51, 5-(4-cyclopropyl-1H-imidazol-1-yl)-2-fluoro-4-methyl-N-(1-methyl-5,6-dihydrobenzo[f]imidazo[1,5-d][1,4]oxazepin-8-yl)benzamide] reads 307 nM. The result for `Cc1cc(F)c(C(=O)Nc2cccc3c2OC[C@@H](CO)n2nnnc2-3)cc1-n1cnc(C2CC2)c1` [Example 17, (R)-5-(4-cyclopropyl-1H-imidazol-1-yl)-2-fluoro-N-(5-(hydroxymethyl)-5,6-dihydrobenzo[f]tetrazolo[1,5-d][1,4]oxazepin-8-yl)-4-methylbenzamide] reads 10.9 nM; that for `CC1(C)COc2c(NC(=O)c3cc(-n4cnc(C5CC5)c4)c(N4CCOCC4)cn3)cccc2-c2nncn21` [Example 36, 4-(4-cyclopropyl-1H-imidazol-1-yl)-N-(5,5-dimethyl-5,6-dihydrobenzo[f][1,2,4]triazolo[4,3-d][1,4]oxazepin-8-yl)-5-morpholinopicolinamide], 5.6 nM; that for `C[C@@H]1COCCN1c1cnc(C(=O)Nc2cccc3c2OCCn2nnnc2-3)cc1-n1cnc(C2CC2)c1` [Example 70, (R)-4-(4-cyclopropyl-1H-imidazol-1-yl)-N-(5,6-dihydrobenzo[f]tetrazolo[1,5-d][1,4]oxazepin-8-yl)-5-(3-methylmorpholino)picolinamide], 2.2 nM. `C[C@H]1COc2c(NC(=O)c3cc(-n4cnc(C5CC5)c4)c(N4CCOCC4)cn3)cccc2-c2nncn21` [Example 38, (S)-4-(4-cyclopropyl-1H-imidazol-1-yl)-N-(5-methyl-5,6-dihydrobenzo[f][1,2,4]triazolo[4,3-d][1,4]oxazepin-8-yl)-5-morpholinopicolinamide] gave an IC50 of 0.6 nM.
